≈ marks a conversion by molar mass, not a printed value.
Details: buffer; pH 7.4; 200.0 µM

solubility kinetic [µg/mL]	Compound
1.1 (≈ 4.1 µM)	CC1(C)C(C#N)=C(N)Oc2c1c(=O)oc1ccccc21
1.7 (≈ 4.84 µM)	Cc1ccc(S(=O)(=O)N(C)C)cc1NC(=O)Nc1ccccc1F
6.3 (≈ 19.9 µM)	O=C(COC(=O)c1ccc2c(c1)OCO2)Nc1ccccc1F
6.2 (≈ 22.2 µM)	Cc1c(C=O)c2ccccc2n1CCOc1ccccc1
44.7 (≈ 150 µM)	COCCNC(=O)c1ccc2c(c1)CCN2S(C)(=O)=O
2 (≈ 7.04 µM)	Cc1ccc(C)c(Nc2ccc3nonc3c2[N+](=O)[O-])c1
> 51.4	CCOc1ccccc1Nc1nc(N)nc(CN2CCCCC2C)n1 (configuration not stated)
2.2 (≈ 6.31 µM)	Cc1onc(-c2ccccc2)c1-c1csc(COc2ccccc2)n1
41.7 (≈ 129 µM)	Cc1ccc(CC(=O)NC2CCN(Cc3ccccc3)CC2)cc1
35.2 (≈ 131 µM)	CCOc1ccccc1C1NC(=O)c2ccccc2O1 (configuration not stated)
> 46.3	CCCC1C(=O)Nc2ccccc2N1C(=O)c1cccc(C)c1 (configuration not stated)
> 44.6	O=C(O)c1ccc(S(=O)(=O)NC2CCCCCC2)cc1
> 41.8	COc1ccc(NC(=O)c2ccc(Cl)cc2)c[n+]1[O-]
> 32.4	Cn1ccnc1COc1ccc(C=O)cc1
< 0.6	Cc1ccccc1OCCn1cc(C=O)c2ccccc21
15.3 (≈ 63.3 µM)	Cc1cc(Cl)n2c(nc3ccccc32)c1C#N
2 (≈ 4.78 µM)	CCOc1ccc(NC(=O)c2ccc(NC(=O)c3ccc(NC(N)=O)cc3)cc2)cc1
35.1 (≈ 129 µM)	N#Cc1ccccc1NC(=S)Nc1ccc(F)cc1
> 32.3	CC1(C)CC(=O)C=C(Nc2ccccc2)C1
> 46.6	Nc1cc(=O)[nH]c(SCC(=O)NC2CCCCCCC2)n1
> 39.5	COc1ccc(CC(=O)OCC(=O)NC2CC2)cc1

solubility kinetic [µg/mL]	Compound
11.4 (≈ 36.4 µM)	COc1ccc(CCNC(=O)CCc2ccc(OC)cc2)cc1
47.7 (≈ 132 µM)	COc1cc(/C=C(\NC(C)=O)C(=O)N2CCCCC2)ccc1OC(C)=O
26.3 (≈ 87.2 µM)	Cc1cccc(N2CCN(C(=O)N3CCCCC3)CC2)c1C
> 49.8	CN(C(=O)c1ccc(Br)cc1)C1CCS(=O)(=O)C1 (configuration not stated)
> 44.6	O=C(NCc1cccnc1)C1CC(c2ccccc2O)=NO1 (configuration not stated)
> 43.5	O=C(O)c1ccc(Cl)c(S(=O)(=O)N2CCCC2)c1
25.2 (≈ 71.1 µM)	O=C(Cn1cc(C(F)(F)F)ccc1=O)Nc1ccc2c(c1)OCCO2
28.1 (≈ 93.9 µM)	Cc1ccnc(NS(=O)(=O)c2ccc3ccccc3c2)n1
> 47.7	CC(=O)C1=C(O)C(=O)N(c2nccs2)C1c1ccccc1F (configuration not stated)
45.9	CCO.N#CC1=C(N)Oc2c(oc(CO)cc2=O)C1c1ccccc1[N+](=O)[O-] (configuration not stated)
32.3 (≈ 130 µM)	O=C(/C=C/c1cccs1)NCc1cccs1
> 30.9	c1ccc(CCNC2=NCCS2)cc1
11.2 (≈ 34 µM)	Cc1ccc(CNC(=O)C(CC(C)C)OC(=O)c2ccco2)cc1 (configuration not stated)
16.5 (≈ 63.2 µM)	O=C(NCc1ccco1)Nc1ccc([N+](=O)[O-])cc1
1.4 (≈ 4.66 µM)	NC(=O)c1ccc(CSc2nc3ccccc3s2)cc1
32.6 (≈ 119 µM)	COCCCNC(=O)c1ccccc1-c1cc(C)no1
45.6 (≈ 150 µM)	CCOC(=O)Cc1csc(NC(=O)c2ccc(C)cc2)n1
> 45.7	Cc1cc(C)n(NC(=S)NC2CCCCC2)c(=O)c1C#N
> 46.3	O=C(Nc1cccc(S(=O)(=O)N2CCCCC2)c1)C1CC1
0.4 (≈ 1.24 µM)	CC(C)Sc1cc(Cl)nc(NC(=O)Nc2ccccc2)n1
32.4 (≈ 102 µM)	CCOC(=O)C1CCN(C(=O)c2cc3cc(F)ccc3[nH]2)CC1

solubility kinetic [µg/mL]	Compound
> 41.5	O=C(Nc1ccccc1N1CCOCC1)C1CCCO1 (configuration not stated)
0.7 (≈ 1.77 µM)	O=C(Nc1ccccc1C(=O)Nc1ccccc1)c1ccccc1Br
40.1 (≈ 145 µM)	CCOC(=S)SCC(=O)Nc1ncc(C)s1
4.4 (≈ 13 µM)	Cc1ccc(C(=O)NCC(=O)N2CCN(c3ccccc3)CC2)cc1
> 50.5	CCC(C(=O)Nc1ccc(C(=O)N2CCCC2)cc1)c1ccccc1 (configuration not stated)
> 33.2	C=CCSc1nc(C)cc2c1C(=O)OC2
21.7 (≈ 66.3 µM)	CC(SCc1cc(=O)n2c([nH]c3ccccc32)c1C#N)C(=O)O (configuration not stated)
> 40.4	Cc1nnc(SCC(=O)N2CCCC2)n(N)c1=O
< 0.3	COc1cccc(-c2nc3ccc([N+](=O)[O-])cc3o2)c1
> 47.9	NC(=O)C1CCCN(C(=O)c2ccc3c(c2)NC(=O)CS3)C1 (configuration not stated)
19.7 (≈ 94.6 µM)	S=c1[nH]c2cc3c(cc2[nH]1)OCCO3
23 (≈ 96.9 µM)	CC1CCCC(NC(=O)c2cccs2)C1C (configuration not stated)
17.5 (≈ 50.7 µM)	OCCCNc1ncnc2oc(-c3ccccc3)c(-c3ccccc3)c12
7.3 (≈ 26.9 µM)	N#CC(=C=[N-])c1nc2ccccc2nc1-[n+]1ccccc1
31.1 (≈ 74.3 µM)	COc1ccc([N+](=O)[O-])cc1NC(=O)C(C)OC(=O)Cc1ccc(OC)c(OC)c1 (configuration not stated)
> 33.5	O=CN1Cc2ccccc2-c2ccccc2C1
< 0.6	O=C(Nc1ccc(F)cc1)c1cc2c(s1)CCCC2
> 46.7	N#C/C(=C(/O)CN1CCCC1)c1nc(-c2ccccc2)cs1
> 61.9	CCN(C(=O)CSc1nnc(-c2ccc(F)cc2)n1C)C1CCS(=O)(=O)C1 (configuration not stated)
> 52.3	Fc1ccccc1-c1nc2nc3ccccc3nc2n1CC1CCCO1 (configuration not stated)
7.9 (≈ 29 µM)	O=c1oc(Nc2ccccc2Cl)nc2ccccc12

solubility kinetic [µg/mL]	Compound
1.7 (≈ 5.13 µM)	CC(=O)c1ccc(NS(=O)(=O)c2ccc(C(C)(C)C)cc2)cc1
28.1 (≈ 113 µM)	Cc1cccc(S(=O)(=O)Nc2ccncc2)c1
> 48.7	Cc1ccccc1N(CC(=O)N1CCCCCC1)S(C)(=O)=O
> 50.4	Cc1cc(NC(=O)c2c(-c3c(F)cccc3Cl)noc2C)no1
> 29.3	CCC(=O)c1c(NC)cc(C)oc1=O
32.8 (≈ 115 µM)	Cc1ccc(NC(=O)C(C)SCc2ccccc2)cc1 (configuration not stated)
9.6 (≈ 31.8 µM)	S=C1NCN(Cc2ccco2)CN1CCc1ccccc1
20.1 (≈ 59.9 µM)	Cc1cc(CNC(=O)c2ccc(C)c([N+](=O)[O-])c2)c2ccccc2n1
53.8 (≈ 139 µM)	CC(C)(C)OC(=O)N1CCCN(C(=O)Nc2ccc(C(F)(F)F)cc2)CC1
> 37.8	CC(C)NCc1nnc(-c2ccccc2Cl)o1
> 41.4	CC(=O)C1=C(O)C(=O)N(C)C1c1ccccc1[N+](=O)[O-] (configuration not stated)
26.4 (≈ 133 µM)	Cc1cc(C)c2c(=O)c(C#N)coc2c1
11.8 (≈ 32.6 µM)	CC1=C(C(=O)OC(C)C)C(c2ccc(C)o2)C(C(=O)OC(C)C)=C(C)N1
> 37	O=C(NCc1ccc(Cl)cc1)c1ccncc1
13 (≈ 45.4 µM)	CC1CCc2sc(C(=O)NCc3ccccn3)cc2C1 (configuration not stated)
6.1 (≈ 17.4 µM)	Cc1cc(C)c(NC(=S)NCCCSC2CCCCC2)c(C)c1
11.5 (≈ 39.7 µM)	CCOc1ccc2oc(C(=O)NC(C)(C)CC)c(C)c2c1
0.7 (≈ 2.17 µM)	O=C(Nc1cc(Cl)ccc1Cl)c1cc(-c2ccco2)on1
39.8 (≈ 138 µM)	COc1ccc2oc(C(=O)NCC3CCCO3)c(C)c2c1 (configuration not stated)
6.1 (≈ 15.3 µM)	CCN(CC)S(=O)(=O)c1cc(NC(=S)NC(=O)C2CCCC2)ccc1C

Compound	solubility kinetic [µg/mL]
COc1ccc(-c2[nH]ncc2CNC(C)Cc2cccc(C)n2)cc1F (configuration not stated)	> 53.2
COc1ccc(C(=O)C2CCCN(Cc3cccc(C)n3)C2)c(OC)c1 (configuration not stated)	> 53.2
c1ccc(-n2ccnc2)cc1	19.7 (≈ 137 µM)
COc1ccccc1C1C([N+](=O)[O-])=C(N)Oc2c1c(=O)oc1ccccc21 (configuration not stated)	2.2 (≈ 6.01 µM)

From PubChem BioAssay AID1996
